Among the data in publication PMC7991022, “Optimization of extracellular ethanol-tolerant β-glucosidase production from a newly isolated Aspergillus sp. DHE7 via solid state fermentation using jojoba meal as substrate: purification and biochemical characterization for biofuel preparation” (Journal of Genetic Engineering & Biotechnology, 2021) are Km values, retold here.

This assay concerns T1, Aspergillus sp. DHE7 β-glucosidase.
T1 construct: gene beta-D-glucosidase; native extracellular enzyme purified from solid-state culture (jojoba meal): ethanol precipitation, DEAE-Sephadex A-50, Sephadex G-100; monomer, 135 kDa by SDS-PAGE
The experiment in a line: p-nitrophenol release at […] nm, Lineweaver-Burk plot. It counts as biochemical. The following applies: pH 6.0, 60 °C, 50 mM Na-citrate; 0.25 to 20 mM substrate; apparent Km.

Take `O=[N+]([O-])c1ccc(O[C@@H]2O[C@H](CO)[C@@H](O)[C@H](O)[C@H]2O)cc1` [p-nitrophenyl-β-D-glucopyranoside]: the Km (commonly the concentration of substrate that gives half-maximal velocity) is 400 µM.
